# Test results reported in US8871812B2, “Therapeutic regimen comprising PEG-interferon, ribavirin and VX-950 for the treatment of hepatitis” (priority 2008, dated 2014).
# Key:
# NS3 protease = experiment: In vitro cleavage of TRIF; format: biochemical, HCV
# Description: Furthermore, NS3/4A is known to be involved in evasion of innate defenses, by e.g., TRIF-dependent mechanisms (as well as viral polyprotein processing). This immune evasion leads to viral persistence. Accordingly, a compound that inhibits both viral polyprotein processing and evasion of innate defenses is desirable.
# TRIF binds to non-prime side of the NS3 protease active site. VX-950 binds to the same non-prime side of the active site as TRIF and blocks TRIP cleavage.
# WT HCVpro = experiment: IFN dependent gene expression / IFNβ promoter activity in Sendai virus infected Huh7 cells; format: cell-based
# Description: IFNβ promoter activity decreases in response to Sendai virus stimulation in the presence of WT HCVpro.
# [1] = C208 Phase 2 study: pharmacokinetics of TVR in plasma; format: in vivo, human; conditions: for Cmin, mean ± SD: Week 8
# Method: (§1) Assessment of virologic breakthrough (defined as a >1-log 10 increase in HCV RNA from nadir, or HCV RNA>100 IU/mL in subjects whose HCV RNA had previously become undetectable [<10 IU/mL] at all assessment timepoints) was performed. Pharmacokinetics and viral dynamics were assessed by pre-defined serial measurements of plasma concentrations of TVR and HCV RNA, respectively, from baseline to Week 12. Pharmacokinetic analysis of TVR was performed using non-compartmental methods for data from full pharmacokinetic profiles. A viral dynamics model, which included fixed effects for treatment and random effects for clearance, drug effect, drop and death rate in infected cells with unstructured variance covariance matrix, was also constructed. Safety and tolerability were assessed by monitoring adverse events (AEs), laboratory abnormalities and cardiovascular parameters.
# [2] = tested on: alanine aminotransferase (ALT); experiment: Serum ALT level during 14-day VX-950 dosing; format: in vivo, human; conditions: all groups, elevated at baseline
# Description: The serum alanine aminotransferase (ALT) level can be measured using commercially available methods. Mean ALT levels, elevated at baseline, decreased during dosing in all groups. Mean ALT levels increased, returned toward baseline, in all dose groups during follow up.
# [3] = Oral bioavailability and plasma trough levels of VX-950; format: in vivo
# Description: The trough level is the concentration that a drug drops down to in plasma just before next dose (i.e., the minimum concentration between doses). It is important, particularly in viral diseases, to maintain drug levels above a certain concentration to maintain appropriate inhibition of viral replication.
# Accordingly, preferred pharmaceutical compositions of this invention are formulated for oral administration.
# [4] = design: species or system human; conditions: in vivo
# Description: This study was designed to provide information on the kinetics of HCV following treatment with VX-950 and peginterferon alfa-2a administered over 14 days.
# This study randomized twenty treatment-naïve patients with chronic genotype 1 hepatitis C infection to three dosing arms (Table 6). At the completion of the 14-day study, 19 of 20 patients chose to begin peginterferon alfa-2a/ribavirin, starting within 5 days of completing the 14-day dosing period; as the other one declined to take the combination of Peg-IRN-2a and ribavirin. Clinic visits were conducted at the discretion of the investigators, after completion of the 1-week and 12-week study-mandated follow-up visits. Nineteen patients have been followed through 24 weeks after the completion of the study dosing. After discussion with the treating physicians, ten (4 in VX-950 and 6 in VX-950/peginterferon alfa-2a) patients stopped peginterferon alfa-2a/ribavirin treatment at 24 weeks.
# WT-HCV protease-SEAP = conditions: SCID mice expressing WT-HCV protease-SEAP; see WO 2005/025517; cited from earlier work
# HCV genotype 1 [5] = experiment: C208 Phase 2 study of telaprevir q8h or q12h with peginterferon alfa-2a or alfa-2b and ribavirin: HCV RNA; format: in vivo, human; conditions: for RVR (subjects with undetectable HCV RNA, <10 IU/mL, at week 4): listed as TVR
# Method: Background: Study 0208 is an ongoing open-label, randomized Phase 2 study of telaprevir (TVR) administered q8h or q12h in combination with peginterferon-alfa-2a (peginterferon-alfa-2a) or peginterferon-alfa-2b and ribavirin (T/PR) in treatment-naïve subjects with HCV genotype 1 infection. We report the results of an interim analysis conducted at week 12 of treatment.
# Subjects in all arms received T/PR treatment for 12 weeks, and will subsequently receive either 12 or 36 additional weeks of PR based on rapid virologic response (RVR) criterion. Subjects who met the definition of viral breakthrough (≧1-log increase in HCV RNA above nadir) discontinued TVR dosing and will complete 48 weeks of PR. An intent-to-treat analysis was performed when all treated subjects had completed week 4 of treatment or had discontinued earlier than week 4. The analysis also assessed all treatment or TVR dosing discontinuations including subjects who discontinued beyond week 4, up to the time of data cutoff. The proportion of subjects with HCV RNA below the limit of detection (TaqMan assay LOD 10 IU/mL) at week 4 (RVR) is reported.
# C208 is an ongoing, open-label, randomized, multicenter, Phase 2 exploratory study. Adult, treatment-naïve subjects with chronic HCV genotype 1 infection were enrolled, including subjects with bridging fibrosis. Inclusion criteria were consistent with those used in prior HCV studies. Subjects received 12 weeks of T/PR, followed by either 12 or 36 additional weeks of PR based on extended rapid virologic response (RVR) criterion (FIG. 1). Subjects with HCV RNA>1000 IU/mL at Week 4, 6 or 8 were required to discontinue TVR dosing and complete 48 weeks of PR.
# An interim intent-to-treat (ITT) analysis was performed and is presented in this report, which includes data obtained for all subjects randomized had completed week 12 of treatment or had discontinued earlier. The primary efficacy endpoint was the proportion of subjects with HCV RNA below the limit of detection (LOD, 10 IU/mL) at different timepoints throughout the first 12 weeks of dosing. HCV RNA levels were measured using the TAQMAN™ HCV RNA assay v2.0 (Roche Molecular Systems Inc., Branchburg, N.J., U.S.A.).
# as §1
# HCV genotype 1 [6] = experiment: Phase 2 studies PROVE1 and PROVE2: sustained virologic response; format: in vivo, human; conditions: treatment-naïve genotype 1 patients
# [7] = Week 4, range across the four treatment groups
compound,measurement,setting,value
CCC[C@H](NC(=O)[C@@H]1[C@H]2CCC[C@H]2CN1C(=O)[C@@H](NC(=O)[C@@H](NC(=O)c1cnccn1)C1CCCCC1)C(C)(C)C)C(=O)C(=O)NC1CC1 [VX-950],cleavage of TRIF,NS3 protease,inhibits in vitro cleavage of TRIF
same,IFN dependent gene expression,WT HCVpro; Sendai virus infected Huh7 cells,restores IFN dependent gene expression
same,IFNβ promoter activation,WT HCVpro; Sendai virus stimulation in the presence of WT HCVpro,overcomes the WT HCVpro mediated suppression of IFNβ promoter activation
same,"Cmin, mean ± SD",[1]; TVR 750 mg q8h + Peg-IFN alfa-2a + RBV (n = 40),2624 ± 507 ng/mL
same,"Cmin, mean ± SD",[1]; TVR 750 mg q8h + Peg-IFN alfa-2b + RBV (n = 42),2569 ± 453 ng/mL
same,"Cmin, mean ± SD",[1]; TVR 1125 mg q12h + Peg-IFN alfa-2a + RBV (n = 40),2134 ± 620 ng/mL
same,"Cmin, mean ± SD",[1]; TVR 1125 mg q12h + Peg-IFN alfa-2b + RBV (n = 39),2321 ± 384 ng/mL
same,telaprevir Cmax,[1]; in vivo,higher
same,telaprevir Cmin,"[1]; on average, q12h versus q8h dosing schedules",lower
same,Mean ALT levels,[2],decreased
same,Plasma trough levels,[3]; 750 mg every 8 hours,higher trough levels
same,Oral bioavailability,"[3]; in vivo, po",orally bioavailable
same,Tolerability,[4],well tolerated
same,Effect on elevated ALT levels,WT-HCV protease-SEAP,ameliorates elevated ALT levels
same,subjects who achieved <10 IU/mL HCV RNA,HCV genotype 1 [5]; [7],67-83%
same,subjects who achieved <25 IU/mL HCV RNA,HCV genotype 1 [5]; [7],87-96%
same,subjects who achieved <10 IU/mL HCV RNA,"HCV genotype 1 [5]; Week 12, range across the four treatment groups",83-93%
same,"RVR (subjects with undetectable HCV RNA, <10 IU/mL, at week 4)",HCV genotype 1 [5]; arm A: TVR 750 mg q8h + Peg-IFN alfa-2a 180 μg/wk + ribavirin 1000-1200 mg/d (N 40),82%
same,number of subjects with viral breakthrough up to week 4,HCV genotype 1 [5]; arm A: TVR 750 mg q8h + Peg-IFN alfa-2a + RBV,0
same,"RVR (subjects with undetectable HCV RNA, <10 IU/mL, at week 4)",HCV genotype 1 [5]; arm B: TVR 750 mg q8h + Peg-IFN alfa-2b 1.5 μg/kg/wk + ribavirin 800-1200 mg/d (N 42),71%
same,number of subjects with viral breakthrough up to week 4,HCV genotype 1 [5]; arm B: TVR 750 mg q8h + Peg-IFN alfa-2b + RBV,2
same,"RVR (subjects with undetectable HCV RNA, <10 IU/mL, at week 4)",HCV genotype 1 [5]; arm C: TVR 1125 mg q12h + Peg-IFN alfa-2a 180 μg/wk + ribavirin 1000-1200 mg/d (N 40),85%
same,number of subjects with viral breakthrough up to week 4,HCV genotype 1 [5]; arm C: TVR 1125 mg q12h + Peg-IFN alfa-2a + RBV,2
same,"RVR (subjects with undetectable HCV RNA, <10 IU/mL, at week 4)",HCV genotype 1 [5]; arm D: TVR 1125 mg q12h + Peg-IFN alfa-2b 1.5 μg/kg/wk + ribavirin 800-1200 mg/d (N 39),68%
same,number of subjects with viral breakthrough up to week 4,HCV genotype 1 [5]; arm D: TVR 1125 mg q12h + Peg-IFN alfa-2b + RBV,1
same,additional breakthroughs after discontinuation of TVR,HCV genotype 1 [5]; both in patients infected with genotype 1a,2
same,Patients with viral breakthrough while on TVR,HCV genotype 1 [5]; q8hr alfa-2a arm,1
same,Patients with viral breakthrough while on TVR,HCV genotype 1 [5]; q8hr alfa-2b arm,3
same,Patients with viral breakthrough while on TVR,HCV genotype 1 [5]; q12 hr alfa-2a arm,2
same,Patients with viral breakthrough while on TVR,HCV genotype 1 [5]; q12 hr alfa-2b arm,3
same,"sustained virologic response rate, PROVE2",HCV genotype 1 [6]; 24-week TVR-containing regimen versus 48-week peginterferon and ribavirin (p=0.01),69%
same,"sustained virologic response rate, PROVE1",HCV genotype 1 [6]; 24-week TVR-containing regimen versus 48-week peginterferon and ribavirin (p=0.02),61%
